For orientation: inhibition means the drop in the measured response relative to a control, in per cent. What is called Papp is a coefficient for how fast a substance crosses the barrier.

In ChEMBL document CHEMBL4184259, “Design, synthesis and evaluation of 4'-OH-flurbiprofen-chalcone hybrids as potential multifunctional agents for Alzheimer's disease treatment” (Bioorg Med Chem, 2018) one finds Activity, inhibition and Papp data, which are given here for 21 molecules.

Structures are written as SMILES. Active and inactive are the calls of the source. No cut-off for these calls is given here.

Series [1] in a line: Antioxidant activity assessed as trolox equivalent of […]-induced radical scavenging activity at 1 to 10 uM pretreated for 15 mins followed by […] addition measured at 1 min interval for 90 mins by ORAC-FL assay. Type of series: functional.
Series [2] addresses Amyloid-beta precursor protein (Homo sapiens) (UniProt P05067). In words: Inhibition of self-induced aggregation of amyloid beta (1 to 42) (unknown origin) at 25 uM after 24 hrs by thioflavin T fluorescence method relative to control.
Series [3] in a line: Inhibition of cupric ion-mediated amyloid beta (1 to 42) aggregation at 25 uM after 24 hrs by thioflavin T fluorescence assay relative to control.
For series [4], the system named is BV-2. The series can be described thus: Cytotoxicity against mouse BV2 cells assessed as effect on cell viability up to 10 uM after 30 mins by MTT assay. Type of series: cell-based. Conditions: bv-2, 0.5 h. (In general: Tetrazolium assays rely on reduction of a dye to a coloured formazan, in cell work by metabolically active cells.)
For series [5], the system named is BV-2. The series can be described thus: Cytotoxicity against mouse BV2 cells assessed as reduction in cell viability at 40 uM after 30 mins by MTT assay relative to control. Type of series: cell-based. Conditions: bv-2, 0.5 h.
For series [6], the system named is BV-2. In words: Cytotoxicity against LPS-induced mouse BV2 cells assessed as effect on cell viability at 2.5 to 10 uM pretreated for 30 mins followed by LPS-stimulation after 24 hrs by MTT assay. It is filed as cell-based. Conditions: bv-2, 24 h.
In series [7] the test system is BV-2. The series can be described thus: Antiinflammatory activity in mouse BV2 cells assessed as inhibition of LPS-induced nitric oxide production at 2.5 uM pretreated for 30 mins followed by LPS-stimulation measured after 24 hrs by Griess assay relative to control. It is filed as functional.
The test system of series [8] is BV-2. In words: Antiinflammatory activity in mouse BV2 cells assessed as inhibition of LPS-induced nitric oxide production at 10 uM pretreated for 30 mins followed by LPS-stimulation measured after 24 hrs by Griess assay relative to control. It is filed as functional. (Griess reagent forms a coloured azo dye with nitrite.)
For series [9], the system named is BV-2. The series can be described thus: Antiinflammatory activity in mouse BV2 cells assessed as inhibition of LPS-induced TNFalpha production at 2.5 uM pretreated for 30 mins followed by LPS-stimulation measured after 24 hrs by ELISA relative to control. It is filed as functional. Background: ELISA stands for enzyme-linked immunosorbent assay.
The test system of series [10] is BV-2. In words: Antiinflammatory activity in mouse BV2 cells assessed as inhibition of LPS-induced TNFalpha production at 10 uM pretreated for 30 mins followed by LPS-stimulation measured after 24 hrs by ELISA relative to control. It is filed as functional.
Series [11] relates to BV-2. In words: Cytotoxicity against LPS-induced mouse BV2 cells assessed as effect on cell viability at 0.5 to 10 uM pretreated for 30 mins followed by LPS-stimulation after 24 hrs by MTT assay. Type of series: cell-based. Conditions: bv-2, 24 h.
The test system of series [12] is BV-2. The series can be described thus: Antiinflammatory activity in mouse BV2 cells assessed as inhibition of LPS-induced nitric oxide production at 0.5 uM pretreated for 30 mins followed by LPS-stimulation measured after 24 hrs by Griess assay relative to control. Type of series: functional.
In series [13] the test system is BV-2. In words: Antiinflammatory activity in mouse BV2 cells assessed as inhibition of LPS-induced TNFalpha production at 0.5 uM pretreated for 30 mins followed by LPS-stimulation measured after 24 hrs by ELISA relative to control. Type of series: functional.
Series [14] is described as follows: Metal chelating activity assessed as Cu2+-compound complex formation by measuring shift in maximum absorption wavelength at 37.5 uM after 30 mins by UV-Vis spectral analysis.
Series [15] can be described thus: Metal chelating activity assessed as Al3+-compound complex formation by measuring shift in maximum absorption wavelength at 37.5 uM after 30 mins by UV-Vis spectral analysis.
Series [16] is described as follows: Metal chelating activity assessed as mole fraction of compound required to show 1:1 stoichiometry for Cu2+-compound complex by UV-vis spectral analysis.
Series [17] is described as follows: Effective permeability of the compound in PBS/EtOH at 100 ug/ml after 18 hrs by PAMPA-BBB assay.
Series [18] is described as follows: Metal chelating activity assessed as Fe2+-compound complex formation by measuring shift in maximum absorption wavelength at 37.5 uM after 30 mins by UV-Vis spectral analysis.
Series [19] is described as follows: Metal chelating activity assessed as Zn2+-compound complex formation by measuring shift in maximum absorption wavelength at 37.5 uM after 30 mins by UV-Vis spectral analysis.

Amyloid-beta precursor protein (Homo sapiens), sequence (P05067 whole entry): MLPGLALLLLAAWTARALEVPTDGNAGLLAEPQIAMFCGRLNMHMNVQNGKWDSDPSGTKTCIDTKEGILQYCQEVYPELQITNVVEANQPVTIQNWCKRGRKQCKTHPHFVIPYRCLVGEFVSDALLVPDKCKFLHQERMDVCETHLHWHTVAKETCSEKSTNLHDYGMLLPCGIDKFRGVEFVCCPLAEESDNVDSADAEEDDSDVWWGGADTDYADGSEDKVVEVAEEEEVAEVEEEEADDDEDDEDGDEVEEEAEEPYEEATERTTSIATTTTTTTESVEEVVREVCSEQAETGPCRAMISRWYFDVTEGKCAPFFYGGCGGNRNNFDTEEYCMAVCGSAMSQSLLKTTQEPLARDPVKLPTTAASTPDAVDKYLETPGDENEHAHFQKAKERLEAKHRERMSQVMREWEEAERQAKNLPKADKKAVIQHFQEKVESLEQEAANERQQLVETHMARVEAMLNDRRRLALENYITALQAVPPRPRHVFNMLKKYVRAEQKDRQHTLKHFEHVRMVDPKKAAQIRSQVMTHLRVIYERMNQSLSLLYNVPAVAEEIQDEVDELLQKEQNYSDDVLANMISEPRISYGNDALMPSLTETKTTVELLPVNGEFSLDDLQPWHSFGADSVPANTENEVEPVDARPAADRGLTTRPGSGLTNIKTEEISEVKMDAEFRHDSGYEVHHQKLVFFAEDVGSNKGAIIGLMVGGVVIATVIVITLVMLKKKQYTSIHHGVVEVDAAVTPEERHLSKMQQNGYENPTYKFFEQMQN

In the case of `CC(C(=O)O)c1ccc(-c2ccc(O)c(C(=O)/C=C/c3ccncc3)c2)c(F)c1` (centres undefined), the Activity in series [1] was 0.9 equiv. The inhibition in series [2] worked out at 18.2%; in [3] it was 52.8%.
As to `CC(C(=O)O)c1ccc(-c2ccccc2)c(F)c1` (centres undefined) [FLURBIPROFEN], the Activity in series [1] was 0.14 equiv; in the series with BV-2 [4], “Non-Toxic”; in the series with BV-2 [5] it was “Non-Toxic”; in the series on BV-2 [6] it was “Non-Toxic”. Further, the inhibition in series [2] came to 12.3%; in series [3], 6.2%. Moreover, the inhibition at 2.5 µM in the series with BV-2 [7] came to 11.8%; with BV-2 [9], 9.6%. The inhibition at 10 µM in the series on BV-2 [8] came out at 23%; with BV-2 [10], 30.3%.
As to `COc1ccc(/C=C/C(=O)c2cc(-c3ccc(C(C)C(=O)O)cc3F)ccc2O)cc1O` (centres undefined), the Activity in [1] is 2 equiv. For the same molecule, the inhibition is 31% in series [2] and 14.6% in [3].
Regarding `COc1ccc(O)c(/C=C/C(=O)c2cc(-c3ccc(C(C)C(=O)O)cc3F)ccc2O)c1` (centres undefined), the Activity in series [1] was 2.5 equiv. The results for the inhibition in [2] and in [3] were 38.1% and 22.2%, respectively.
`COc1cc2c(cc1OC)C(=O)C(CC1CCN(Cc3ccccc3)CC1)C2` (centres undefined) yielded an inhibition in [3] of under 5%.
Turning to `COc1ccc(/C=C/C(=O)c2cc(-c3ccc(C(C)C(=O)O)cc3F)ccc2O)cc1` (centres undefined), in [1], the Activity is 0.61 equiv. The inhibition stood at 32.9% in series [2] and 29.1% in series [3].
Regarding `Cc1ccc(/C=C/C(=O)c2cc(-c3ccc(C(C)C(=O)O)cc3F)ccc2O)cc1` (centres undefined), in series [1], the Activity came to 0.42 equiv. The figures for the inhibition in series [2] and in series [3] were 23.6% and 18.7%, respectively.
On to `CC(C(=O)O)c1ccc(-c2ccc(O)c(C(=O)/C=C/c3ccc(O)cc3)c2)c(F)c1` (centres undefined), for which the Activity in [1] worked out at 3.5 equiv. In addition, the inhibition in series [2] turned out to be 18.7%; in series [3], 26.1%.
For `CCN(CC)c1ccc(/C=C/C(=O)c2cc(-c3ccc(C(C)C(=O)O)cc3F)ccc2O)cc1` (centres undefined), the Activity in series [1] is 3.3 equiv; in the series with BV-2 [4] it was “Non-Toxic”; in the series on BV-2 [5] it was 64.9%; in the series on BV-2 [11], “Non-Toxic”; in series [14], 500 nm; in series [15], 516 nm. In series [16], the Activity turned out to be 1.04 molar ratio. The inhibition in [2] came to 78.2%; in [3] it was 95%. Moreover, the figures for the inhibition at 2.5 µM with BV-2 [7] and in the series with BV-2 [9] were 46.3% and 46.2%, respectively. In addition, the inhibition at 10 µM in the series with BV-2 [8] stood at 68.4%; with BV-2 [10] it was 65.4%. In addition, the results for the inhibition at 0.5 µM in the series on BV-2 [12] and in the series on BV-2 [13] were 30.1% and 14.3%, respectively. In series [17], this molecule yielded a Papp at 18 h, 100 ug/ml of 6.66 ×10⁻⁶ cm/s.
Regarding `CC(C(=O)O)c1ccc(-c2ccc(O)c(C(=O)/C=C/c3cccnc3)c2)c(F)c1` (centres undefined), in [1], the Activity was determined as 1.1 equiv. Moreover, the inhibition in series [2] is 8.3%; in series [3], 47%.
On to `CC(C(=O)O)c1ccc(-c2ccc(O)c(C(=O)/C=C/c3ccc(N4CCCCC4)cc3)c2)c(F)c1` (centres undefined), for which, in series [1], the Activity is 1.1 equiv. Further, the inhibition in series [2] was 31.5%; in [3], 53.8%.
With `CC(C(=O)O)c1ccc(-c2ccc(O)c(C(=O)/C=C/c3cccs3)c2)c(F)c1` (centres undefined), in series [1], the Activity came out at 1.2 equiv. For the same molecule, the inhibition in series [2] amounted to 16.6%; in series [3], 12.1%.
As for `CC(C(=O)O)c1ccc(-c2ccc(O)c(C(=O)/C=C/c3ccc(N(C)C)cc3)c2)c(F)c1` (centres undefined), the Activity in series [1] was 3.1 equiv; in the series with BV-2 [4] it was “Non-Toxic”; in the series on BV-2 [5], 69.1%; in the series with BV-2 [11] it was “Non-Toxic”; in [14], 492 nm; in series [15] it was 500 nm. Also, in series [16], the Activity was determined as 0.99 molar ratio. Further, the results for the inhibition in series [2] and in series [3] were 60% and 52.4%, respectively. In addition, the inhibition at 2.5 µM with BV-2 [7] came to 36%; in the series with BV-2 [9], 39.6%. Further, the inhibition at 10 µM in the series on BV-2 [8] was 64.7%; with BV-2 [10] it was 61.5%. The inhibition at 0.5 µM in the series on BV-2 [12] came to 25.7%; in the series with BV-2 [13], 12.1%. Further, the result in series [18] and in series [19] was inactive. The same molecule showed a Papp at 18 h, 100 ug/ml in [17] of 2.25 ×10⁻⁶ cm/s.
In the case of `COc1ccc(/C=C/C(=O)c2cc(-c3ccc(C(C)C(=O)O)cc3F)ccc2O)c(OC)c1` (centres undefined), the Activity in [1] is 1.05 equiv. In addition, the inhibition in [2] was determined as 18.8%; in [3], 45.3%.
`COc1cc(/C=C/C(=O)CC(=O)/C=C/c2ccc(O)c(OC)c2)ccc1O` came in with an inhibition in series [3] of 69.5%.
For the molecule `CC(C(=O)O)c1ccc(-c2ccc(O)c(C(=O)/C=C/c3ccccc3O)c2)c(F)c1` (centres undefined), in [1], the Activity worked out at 3.4 equiv. The inhibition amounted to 23.1% in [2] and 16.3% in series [3].
On the same counts, the results for `CC(C(=O)O)c1ccc(-c2ccc(O)c(C(=O)/C=C/c3ccccc3N(C)C)c2)c(F)c1` (centres undefined) are 0.77 equiv, 36.8% and 20.1%.
Consider `CC(C(=O)O)c1ccc(-c2ccc(O)c(C(=O)/C=C/c3ccc(N4CCOCC4)cc3)c2)c(F)c1` (centres undefined), for which the Activity in series [1] worked out at 2.23 equiv. The figures for the inhibition in [2] and in series [3] were 51.3% and 47.2%, respectively.
The corresponding values for `COc1ccccc1/C=C/C(=O)c1cc(-c2ccc(C(C)C(=O)O)cc2F)ccc1O` (centres undefined) are 1.06 equiv, 25.1% and 18.9%.
On to `COc1ccc(/C=C/C(=O)c2cc(-c3ccc(C(C)C(=O)O)cc3F)ccc2O)cc1OC` (centres undefined), for which the Activity in series [1] stood at 1.56 equiv. For the same molecule, the inhibition turned out to be 14.2% in series [2] and 24.5% in [3].
`COc1cccc(/C=C/C(=O)c2cc(-c3ccc(C(C)C(=O)O)cc3F)ccc2O)c1O` (centres undefined): in [1], the Activity came to 1.6 equiv. In addition, the inhibition in series [2] was 29%; in series [3], 13.4%.
